17 molecules from patent publication US12692264B2, “Pyrimidine or pyridine derivative, preparation method therefor, and application thereof in pharmacy” (ABBISKO THERAPEUTICS CO., LTD., priority 2021, dated 2026) can be followed below.

Each structure is given as a SMILES string.

Sequence of Ba/F3 EGFR-D770-N771ins_SVD (P00533 with tags, fused parts or gaps DUP768-770): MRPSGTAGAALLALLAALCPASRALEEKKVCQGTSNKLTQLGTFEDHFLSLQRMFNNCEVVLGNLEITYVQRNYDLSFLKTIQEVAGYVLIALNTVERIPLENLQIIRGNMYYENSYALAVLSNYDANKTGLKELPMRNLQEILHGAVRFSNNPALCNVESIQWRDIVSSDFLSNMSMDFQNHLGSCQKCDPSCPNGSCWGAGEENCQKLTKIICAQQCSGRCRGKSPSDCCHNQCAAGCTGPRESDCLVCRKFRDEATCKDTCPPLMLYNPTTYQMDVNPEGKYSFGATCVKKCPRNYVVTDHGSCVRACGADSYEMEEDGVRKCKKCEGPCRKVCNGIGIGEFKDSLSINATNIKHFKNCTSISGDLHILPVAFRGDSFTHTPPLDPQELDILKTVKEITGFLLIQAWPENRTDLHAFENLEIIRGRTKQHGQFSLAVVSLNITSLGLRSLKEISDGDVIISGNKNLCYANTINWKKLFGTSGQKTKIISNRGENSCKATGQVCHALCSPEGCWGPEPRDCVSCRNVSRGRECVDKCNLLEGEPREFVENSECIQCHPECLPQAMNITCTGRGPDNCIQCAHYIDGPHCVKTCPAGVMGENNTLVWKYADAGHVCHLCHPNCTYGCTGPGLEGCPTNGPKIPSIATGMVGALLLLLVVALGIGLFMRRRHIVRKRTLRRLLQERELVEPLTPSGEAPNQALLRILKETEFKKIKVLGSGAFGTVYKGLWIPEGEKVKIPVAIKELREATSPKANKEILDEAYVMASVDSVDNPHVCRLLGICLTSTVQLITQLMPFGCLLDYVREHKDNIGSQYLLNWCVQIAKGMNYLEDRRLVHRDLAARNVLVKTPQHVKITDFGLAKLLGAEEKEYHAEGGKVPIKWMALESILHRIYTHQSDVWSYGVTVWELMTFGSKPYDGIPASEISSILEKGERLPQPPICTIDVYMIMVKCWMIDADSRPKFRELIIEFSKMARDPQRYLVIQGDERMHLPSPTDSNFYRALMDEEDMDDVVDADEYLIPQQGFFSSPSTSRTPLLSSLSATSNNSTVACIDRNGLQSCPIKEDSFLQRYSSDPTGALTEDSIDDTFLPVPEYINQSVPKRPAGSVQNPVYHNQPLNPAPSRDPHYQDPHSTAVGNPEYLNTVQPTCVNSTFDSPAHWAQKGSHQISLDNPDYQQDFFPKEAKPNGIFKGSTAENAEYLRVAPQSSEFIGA

In the test the target is Ba/F3 EGFR-D770-N771ins_SVD (Homo sapiens, UniProt P00533, DUP768-770, cells depend on it). Put plainly: Cell proliferation study (CellTiter-Glo, 72 hrs), Ba/F3 EGFR-D770-N771ins_SVD. The following applies: CTG, * = average of multiple measurements, read-out: Ba/F3 EGFR-D770-N771ins_SVD IC50. The format is cell-based. Here is the method:
(I) Reagents and Materials
• Fetal bovine serum FBS (GBICO, Cat #10099-141); • CellTiter-Glo® luminescent cell viability assay kit (Promega, Cat #G7572); • Black transparent flat-bottom 96-well plate (Corning®, Cat #3603). (II) Instruments • SpectraMax multi-label microplate reader MD, 2104-0010A; • Carbon dioxide incubator, Thermo Scientific 3100 series; • Biological safety cabinet, Thermo Scientific, 1300 series model A2; • Inverted microscope, Olympus, CKX41SF; • Siemens refrigerator KK25E76T1. (III) Cell Lines and Culture Conditions
(IV) Experimental Procedures 1. Cell Culture and Inoculation: • (1) Cells in the logarithmic growth phase were harvested and counted using a […]. The cell viability was determined by the trypan blue dye exclusion method to ensure cell viability above 90%. • (2) The cell concentration was adjusted to reach a desired final density; 90 μL of cell suspension was added to a 96-well plate. • (3) The cells were incubated overnight in the 96-well plate at 37° C., 5% CO2 and with 95% humidity. 2. T0 Benchmark Data: • (1) 10 μL of PBS was added to each well of the TO plate containing the cells. • (2) The CTG reagent was thawed and the cell plate was equilibrated to room temperature for 30 min. • (3) An equal volume of CTG solution was added to each well. • (4) The cells were lysed by shaking on an orbital shaker for 5 min. • (5) The cell plate was left to stand at room temperature for 20 min to stabilize the fluorescence signal. • (6) The fluorescence signal values of TO were read. 3. Dilution and Addition of Compounds • (1) According to the compound information table, a corresponding volume of DMSO was added to the corresponding compound powder to prepare a 10 mM stock solution. • (2) A 1000-fold, 3.16-fold-diluted compound solution was prepared. • (3) The 1000× diluted compound solution was diluted 100-fold with PBS to prepare a 10-fold compound solution with a maximum concentration of 10 μM, including 9 concentrations, with 3.16-fold dilution, and 10 μL of the medicament solution was added to each well of the 96-well plate to seed the cells. Triplicate wells were set for each compound concentration, with a final concentration of DMSO being 0.1%. • (4) The cells were placed in the 96-well plate containing the medicament at 37° C., 5% CO2 and with 95% humidity, and cultured for 72 hrs before CTG analysis. 4. Fluorescence Signal Reading • (1) The CTG reagent was thawed and the cell plate was equilibrated to room temperature for 30 min. • (2) An equal volume of CTG solution was added to each well. • (3) The cells were lysed by shaking on an orbital shaker for 5 min. • (4) The cell plate was left to stand at room temperature for 20 min to stabilize the fluorescence signal. • (5) The fluorescence values were read. 5. Data Processing
Data were analyzed using GraphPad Prism 7.0 software and fitted data were regressed using non-linear S-curves to obtain dose-response curves from which IC50 values (in nM) were calculated.
Background: In ATP-based viability assays light output follows the ATP content of the culture.
Consider `[2H]C1([2H])N(c2nc(Nc3cc(NC(=O)C=C)c(N4CCN(C5CC5)CC4)cc3OC)ncc2C(=O)OC(C)C)c2ccc(C)nc2C1(C)C` [Example 53, isopropyl 2-((5-acrylamido-4-(4-cyclopropyl-piperazin-1-yl)-2-methoxy-phenyl)amino)-4-(3,3,5-trimethyl-2,3-dihydro-1H-pyrrolo[3,2-b]pyridin-1-yl-2,2-d2)pyrimidine-5-carboxylate], for which the GI50 was 0.552 µM.
In the case of `C=CC(=O)Nc1cc(Nc2ncc(C(=O)OC(C)C)c(N3CC(C)(C)c4nc(C)ccc43)n2)c(OC)cc1N1CCN(CC)CC1` [Example 34, isopropyl 2-((5-acrylamido-4-(4-ethylpiperazin-1-yl)-2-methoxyphenyl)amino)-4-(3,3,5-trimethyl-2,3-dihydro-1H-pyrrolo[3,2-b]pyridin-1-yl)pyrimidine-5-carboxylate], the GI50 worked out at 0.443 µM.
The same measure for `C=CC(=O)Nc1cc(Nc2ncc(C(=O)OC(C)C)c(N3CC(C)(C)c4nc(C#CC)ccc43)n2)c(OC)cc1N1CCN(C)C(C)C1` (centres unmarked) [Example 95, isopropyl 2-((5-acrylamido-4-(3,4-dimethyl-piperazin-1-yl)-2-methoxy-phenyl)amino)-4-(3,3-dimethyl-5-(prop-1-yn-1-yl)-2,3-dihydro-1H-pyrrolo[3,2-b]pyridin-1-yl)pyrimidine-5-carboxylate]: 0.254 µM; for `C=CC(=O)Nc1cc(Nc2ncc(C(=O)OC(C)C)c(N3CC(C)(C)c4nc(C#N)ccc43)n2)c(OC)cc1N(C)CCN(C)C` [Example 23, isopropyl 2-((5-acrylamido-4-((2-(dimethylami-no)ethyl)(methyl)amino)-2-methoxy-phenyl)amino)-4-(5-cyano-3,3-dimethyl-2,3-dihydro-1H-pyrrolo[3,2-b]pyridin-1-yl)pyrimidine-5-carboxylate]: 0.0922 µM; for `C=CC(=O)Nc1cc(Nc2ncc(C(=O)OC(C)C)c(N3CC(C)(C)c4nc(C(F)(F)F)ccc43)n2)c(OC)cc1N(C)CCN(C)C` [Example 17, isopropyl 2-((5-acrylamido-4-((2-(dimethylami-no)ethyl)(methyl)amino)-2-methoxy-phenyl)amino)-4-(3,3-dimethyl-5-(trifluoromethyl)-2,3-dibydro-1H-pyrrolo[3,2-b]pyridin-1-yl)pyrimidine-5-carboxylate]: 0.135 µM.
The value for `C=CC(=O)Nc1cc(Nc2ncc(C(=O)OC(C)C)c(N3CC(C)(C)c4nc5c(cc43)CCC5)n2)c(OC)cc1N(C)CCN(C)C` [Example 80, isopropyl 2-((5-acrylamido-4-((2-(dimethylami-no)ethyl)(methyl)amino)-2-methoxy-phenyl)amino)-4-(3,3-dimethyl-3,5,6,7-tetrahydrocyclopenta[b]pyrrolo[2,3-e]pyridin-1(2H)-yl)pyrimidine-5-carboxylate] was 0.0449 µM; that for `C=CC(=O)Nc1cc(Nc2ncc(C(=O)OC(C)C)c(N3CC(C)(C)c4nc(C(=C)C)ccc43)n2)c(OC)cc1N(C)CCN(C)C` [Example 14, isopropyl 2-((5-acrylamido-4-((2-(dimethylami-no)ethyl)(methyl)amino)-2-methoxy-phenyl)amino)-4-(3,3-dimethyl-5-(prop-1-en-2-yl)-2,3-dihydro-1H-pyrrolo[3,2-b]pyridin-1-yl)pyrimidine-5-carboxylate] was 0.039 µM.
`C=CC(=O)Nc1cc(Nc2ncc(C(=O)OC(C)C)c(N3CC(C)(C)c4nc(C#CC)ccc43)n2)c(OC)cc1N1CCN(C2CC2)CC1` [Example 75, isopropyl 2-((5-acrylamido-4-(4-cyclopropyl-piperazin-1-yl)-2-methoxyphenyl)ami-no)-4-(3,3-dimethyl-5-(prop-1-yn-1-yl)-2,3-dihydro-1H-pyrrolo[3,2-b]pyridin-1-yl)pyrimidine-5-carboxylate]: the GI50 turned out to be 2.85 µM.
Regarding `C=CC(=O)Nc1cc(Nc2ncc(C(=O)OC(C)C)c(N3CC(C)(C)c4nc(C)ccc43)n2)c(OC2CC2)cc1N(C)CCN(C)C` [Example 32, isopropyl 2-((5-acrylamido-2-cyclopropoxy-4-((2-(dimethylamino)ethyl)(methyl)ami-no)phenyl)amino)-4-(3,3,5-trimethyl-2,3-dihydro-1H-pyrrolo[3,2-b]pyridin-1-yl)pyrimidine-5-carboxylate], the GI50 came to 0.0444 µM.
Turning to `C=CC(=O)Nc1cc(Nc2ncc(C(=O)OC(C)C)c(N3CC(C)(C)c4nc(N5CCC5)ccc43)n2)c(OC)cc1N(C)CCN(C)C` [Example 38, isopropyl 2-((5-acrylamido-4-((2-(dimethylami-no)ethyl)(methyl)amino)-2-methoxy-phenyl)amino)-4-(5-(azetidin-1-yl)-3,3-dimethyl-2,3-dihydro-1H-pyrrolo[3,2-b]pyridin-1-yl)pyrimidine-5-carboxylate], the GI50 is 0.339 µM.
For the molecule `C=CC(=O)Nc1cc(Nc2ncc(C(=O)OC(C)C)c(N3CC(C)(C)c4nc(C)ccc43)n2)c(OC)cc1N1CCN(C)CC1` [Example 33, isopropyl 2-((5-acrylamido-2-methoxy-4-(4-methylpiperazin-1-yl)phenyl)amino)-4-(3,3,5-trimethyl-2,3-dihydro-1H-pyrrolo[3,2-b]pyridin-1-yl)pyrimidine-5-carboxylate], the GI50 was found to be 0.503 µM.
The same measure for `C=CC(=O)Nc1cc(Nc2ncc(C(=O)OC(C)C)c(N3CC(C)(C)c4nc(C#CC)ccc43)n2)c(OC)cc1N1CCN(C)CC1` [Example 70, isopropyl 2-((5-acrylamido-2-methoxy-4-(4-methylpiperazin-1-yl)phenyl)amino)-4-(3,3-dimethyl-5-(prop-1-yn-1-yl)-2,3-dihydro-1H-pyrrolo[3,2-b]pyridin-1-yl)pyrimidine-5-carboxylate]: 0.501 µM; for `C=CC(=O)Nc1cc(Nc2ncc(C(=O)OC(C)C)c(N3CC(C)(C)c4nc(C)ccc43)n2)c(OC)nc1N1CCC[C@H]1CN(C)C` [Example 43, isopropyl (S)-2-((5-acrylamido-6-(2-((dimethyl-amino)methyl)pyrrolidin-1-yl)-2-meth-oxypyridin-3-yl)amino)-4-(3,3,5-tri-methyl-2,3-dihydro-1H-pyrrolo[3,2-b]pyridin-1-yl)pyrimidine-5-carboxylate]: 0.453 µM.
As to `C=CC(=O)Nc1cc(Nc2ncc(C(=O)OC(C)C)c(N3CC(C)(C)c4nc(C)ccc43)n2)c(OC(C)C)cc1N(C)CCN(C)C` [Example 28, isopropyl 2-((5-acrylamido-4-((2-(dimethylami-no)ethyl)(methyl)amino)-2-isopropoxy-phenyl)amino)-4-(3,3,5-trimethyl-2,3-dihydro-1H-pyrrolo[3,2-b]pyridin-1-yl)pyrimidine-5-carboxylate], the GI50 was 0.204 µM.
As to `C=CC(=O)Nc1cc(Nc2ncc(C(=O)OC(C)C)c(N3CC(C)(C)c4cc(F)c(F)cc43)n2)c(OC)cc1N1CC[C@@H](N(C)C)C1` [Example 94, isopropyl (R)-2-((5-acrylamido-4-(3-(dimethyl-amino)pyrrolidin-1-yl)-2-methoxy-phenyl)amino)-4-(5,6-difluoro-3,3-dimethylindolin-1-yl)pyrimidine-5-carboxylate], the GI50 is 0.06 µM.
The value for `C=CC(=O)Nc1cc(Nc2ncc(C(=O)OC(C)C)c(N3CC(C)(C)c4nc(Br)ccc43)n2)c(OC)cc1N(C)CCN(CC)CC` [Example 90, isopropyl 2-((5-acrylamido-4-((2-(diethyl-amino)ethyl)(methyl)amino)-2-methoxyphenyl)amino)-4-(5-bromo-3,3-dimethyl-2,3-dihydro-1H-pyrrolo[3,2-b]pyridin-1-yl)pyrimidine-5-carboxylate] was 0.116 µM; that for `C=CC(=O)Nc1cc(Nc2ncc(C(=O)OC(C)C)c(N3CC(C)(C)c4nc(C)ccc43)n2)c(OC)cc1N1CCC[C@@H](N(C)C)C1` [Example 61, isopropyl (R)-2-((5-acrylamido-4-(3-(dimethyl-amino)piperidin-1-yl)-2-methoxy-phenyl)amino)-4-(3,3,5-trimethyl-2,3-dihydro-1H-pyrrolo[3,2-b]pyridin-1-yl)pyrimidine-5-carboxylate] was 0.255 µM.
